Results taken from patent US8609725B2, “Method of using beta-hydroxy-beta-methylbutyrate for reducing tumor growth rate” (Abbott Laboratories, priority 2004, dated 2013).

Experiments:
[1] = tested on: p42, ATPase subunit of the 19S regulator; assay: Western blotting of p42 in gastrocnemius muscle of MAC16 mice; assay type: in vivo, NMRI mice
I-κBα = assay: PIF-induced degradation of I-κBα in murine myotubes; assay type: cell-based; conditions: 50 μM HMB
Experimental: (§1) For Western blot analysis, cytosolic protein (2 to 5 μg) obtained for the above assay were resolved on 10% SDS-PAGE and transferred to 0.45 μm nitrocellulose membrane, which had been blocked with 5% Marvel in PBS, at 4° C. overnight. The primary antibodies were used at a dilution of 1:100 (anti-actin and PKCα); 1:500 (anti-ERK1 and 2); 1:1000 (anti-20S proteasome β-subunit and I-κBα); 1:1500 (anti-20S proteasome α-subunit) or 1:5000 (anti-p42), while the secondary antibodies were used at a dilution of 1:2000. Incubation was carried out for 2 h at room temperature and development was by ECL. Loading was quantitated by actin concentration. The in vitro study described in Example III above also evaluated the effect of HMB on molecules that are key mediators in the pathway of inflammation. This experiment was conducted as described in Example III.

[2] = tested on: 20S proteasome β-subunits; assay: Western blotting of 20S proteasome β-subunits in gastrocnemius muscle of MAC16 mice; assay type: in vivo, NMRI mice
NF-κB = NF-κB nuclear accumulation / binding to DNA (EMSA) in murine myotubes; assay type: cell-based
Experimental: DNA binding proteins were extracted from myotubes by the method of Andrews, N. C. et al. A rapid micropreparation technique for extraction of DNA-binding proteins from limiting numbers of mammalian cells. Nucleic Acids Res., 19: 2499, 1991, which utilizes hypotonic lysis followed by high salt extraction of nuclei. The EMSA (electrophoretic mobility shift assay) binding assay was carried out according to the manufacturer's instructions. The in vitro study described in Example III above also evaluated the effect of HMB on molecules that are key mediators in the pathway of inflammation. This experiment was conducted as described in Example III.

C2C12 myotubes = assay: PIF-induced total protein degradation in C2C12 myotubes; assay type: cell-based, murine
Experimental: C2C12 myotubes were routinely passaged in DMEM supplemented with 10% FCS, glutamine and 1% penicillin-streptomycin under an atmosphere of 10% CO2 in air at 37 °C. Myotubes were formed by allowing confluent cultures to differentiate in DMEM containing 2% HS, with medium changes every 2 days.
PIF was purified from solid MAC16 tumors (Todorov, P. et al. Characterization of a cancer cachectic factor. Nature, 379: 739-742, 1996.) excised from mice with a weight loss of 20 to 25%. Tumors were homogenised in 10 mM Tris-HCl, pH 8.0, containing 0.5 mM phenylmethylsulfonyl fluoride, 0.5 mM EGTA and 1 mM dithiothreitol at a concentration of 5 ml/g tumor. […]
Myotubes in six-well multidishes were labeled with L-[2, 6^−3H] phenylalanine (0.67 mCi/mmole) for 24 h in 2 ml DMEM containing 2% HS. They were then washed three times in PBS followed by a 2 h incubation at 37° C. in DMEM without phenol red until no more radioactivity appeared in the supernatant. These myotubes were then further incubated for 24 h in the presence of PIF, with and without EPA or HMB, in fresh DMEM without phenol red, to prevent quenching of counts, and in the presence of 2 mM cold phenylalanine to prevent reincorporation of radioactivity. The amount of radioactivity released into the medium was expressed as a percentage of control cultures not exposed to PIF to determine total protein degradation.

PKCα = target: T1, PKCα (Mus musculus, UniProt P20444); assay: PIF-stimulated translocation of PKCα from cytoplasm to plasma membrane in murine myotubes; assay type: cell-based
T1 construct: PIF stimulates translocation of PKCα from the cytoplasm to the plasma membrane; endogenous in cells; host or cells: murine myotubes (C2C12)
Experimental: as §1, with “concentration.” for “concentration. The in vitro study described in Example III above also evaluated the effect of HMB on molecules that are key mediators in the pathway of inflammation. This experiment was conducted as described in Example III.”
The in vitro study described in Example III above also evaluated the effect of HMB on molecules that are key mediators in the pathway of inflammation. This experiment was conducted as described in Example III.

[3] = HMB 0.25 g/kg, EPA 0.6 g/kg or combination, 3 days

inhibition of binding of NF-κB to DNA (NF-κB; 25 μM HMB): Only partial inhibition | nuclear accumulation of NF-κB (NF-κB; 50 μM HMB): prevent nuclear accumulation of NF-κB | attenuation of PIF-stimulated translocation of PKCα (PKCα; 25 μM HMB): less effective | attenuation of PIF-stimulated translocation of PKCα (PKCα; 50 μM): effectively attenuated
Compound: CC(C)(O)CC(=O)O [HMB, beta-hydroxy-beta-methylbutyric acid]
expression of p42 [1, 3]: equally effective | reduction of protein expression of p42 ([1]; summary of Examples I-IV): at least 50% | attenuation of I-κBα degradation in the presence of PIF (I-κBα): effectively attenuate | expression of 20S proteasome β-subunits [2, 3]: attenuated | reduction of protein expression of 20S β-subunits ([2]; summary of Examples I-IV): at least 50% | attenuation of PIF induced protein degradation (C2C12 myotubes; 25 μM HMB, at low, but not at high concentrations of PIF): some attenuation | attenuation of PIF induced protein degradation (C2C12 myotubes; 50 μM, 24 h after addition of PIF): equally effective
